In ChEMBL document CHEMBL3576807, “Crystal Structures of mPGES-1 Inhibitor Complexes Form a Basis for the Rational Design of Potent Analgesic and Anti-Inflammatory Therapeutics” (J Med Chem, 2015):

Key:
[1] = target: T1, Prostaglandin E synthase (Homo sapiens) (UniProt O14684); assay: Binding affinity to mPGES-1 (unknown origin) assessed as increase in protein aggregation temperature at 0.1 mM by differential static light scattering method
T1 sequence (whole entry): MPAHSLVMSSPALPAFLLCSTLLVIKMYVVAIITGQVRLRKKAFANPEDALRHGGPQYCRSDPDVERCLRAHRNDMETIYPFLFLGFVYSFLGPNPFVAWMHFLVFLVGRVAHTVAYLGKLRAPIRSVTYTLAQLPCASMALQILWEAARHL

[2] = target: T2, Prostaglandin E synthase (Homo sapiens, UniProt O14684); assay: Inhibition of recombinant human mPGES-1 expressed in human 293E cell microsomes using PGH2 as substrate assessed as PGE2 production after 2.5 mins by LC/MS analysis
T2 sequence (O14684 whole entry): T1 sequence (whole entry)

[3] = target: T2, Prostaglandin E synthase; assay: Inhibition of purified mPGES-1 (1 to 152) (unknown origin) extracted from detergent-solubilized baculovirus-infected insect Sf9 cell membranes using PGH2 as substrate assessed as PGE2 production after 2.5 mins by LC/MS analysis

deltaT [1] [°C] | IC50 [2] [nM] | IC50 [3] [nM] | SMILES
7.3 | 216 | 2580 | CC(C)Oc1ccc(-n2c(C(=O)O)cc3cc(-c4ccc(C(C)(C)C)cc4)ccc32)cc1
7.8 | 7 | 3940 | Fc1cccc(Cl)c1-c1nc(-c2ccc(C#Cc3ccc(C(F)(F)F)cc3)nc2)c(Br)[nH]1
